Measurements: patent publication US12295930B2, “Inducing proliferation of cardiomyocytes and therapeutic uses related thereto” (Emory University, priority 2018, dated 2025)

Columns and labels:
[1] = test system: ventricular cardiomyocytes; test: Ventricular cardiomyocyte numbers after T3/metoprolol therapy in adult mice; assay type: in vivo, mouse; settings: adult 6-month-old mice; metoprolol 6 μg/g daily i.p. 19 days and/or T3 2 ng/g i.p. 5 daily injections; 2 weeks after cessation
Text: Digestion efficiencies were ˜98%. Cardiomyocytes in these cell suspensions, identified by their size and by rod shape, were counted using a hemocytometer. […]

adult murine heart = test: Transthoracic echocardiography after T3/β1-adrenergic receptor blocker therapy; assay type: in vivo, mouse; settings: for Ejection fraction / FW diastole / FW systole / Fractional shortening / IVS diastole / IVS systole / LV end-diastolic dimension / LV end-systolic dimension / LV mass: adult 6-month-old mice, metoprolol 6 μg/g daily i.p. 19 days and/or T3 2 ng/g i.p. 5 daily injections, 2 weeks after cessation
Protocol: Approximately 6-month-old mice were used. […] On day-14 of this therapy, mice were additionally given 5 daily injections of T3 (2 ng/g, i.p.) or vehicle. At 2 and 4 weeks after the cessation of T3/β1-adrenergic receptor blocker mono- or combination therapy, the body weights of these mice were measured as well as their cardiac dimensions and function using transthoracic echocardiography.
Experiments were performed to determine whether reversal of cell cycle block using β1-blockade coupled with acute T3 treatment may be sufficient to expand the cardiomyocyte endowment of the adult murine heart. […] Two weeks after cessation of these therapies LV dimensions and contractility were analyzed by echocardiography as well as ventricular cardiomyocyte numbers.

LV cardiomyocytes [2] = settings: T3 daily over 3 days (P7-P9); same mouse heart
Text: To determine if LV apical cardiomyocytes undergo cell replication, multicolor clonal analysis was used in double-transgenic Myh6-MerCreMer::Rosa26fs-Confetti mice to record the proliferative strategies of individual cardiomyocytes of the apex relative to those of the base.

LV cardiomyocytes [3] = test: Immunocytochemistry for S phase (EdU) and mitosis (pH3) after in vivo T3; design: species or system mouse
Protocol: (§1) T3 was administered, intraperitoneally, to each mouse at the dose indicated. Vehicle was administered by the same route and animals thus treated served as controls. Phosphate buffered saline (PBS) was the vehicle for T3, and soybean oil (Sigma, S7381) was the vehicle for 4-hydroxytamoxifen. DUSP5 or β1-adrenergic receptor-specific siRNA or scrambled siRNA (control) was administered using in vivo-jetPEI®, (VWR, 89129-960). […] P7 and older mice were first anesthetized with 5% isoflurane and then hearts were harvested for further processing. Hearts were also collected at 12, 24 and 40 h after T3 or vehicle treatment and ventricular cardiomyocytes were prepared from the apex and base for immunoblotting, RT-qPCR or immunocytochemistry. Hearts were also collected at various ages after birth for immunoblotting, immunocytochemistry, immunohistochemistry and cardiomyocyte number estimation.
Experiments were performed to determine whether T3-stimulated cell cycle entry in LV apical cardiomyocytes ends in mitosis and cell replication.

[4] = test system: IGF-1/IGF-1R, MEK1/2, ERK1/2; test: T3 proliferative signaling in P8 LV apical and basal cardiomyocytes (immunoblotting); assay type: in vivo, mouse
Protocol: as §1
Proliferative signaling by growth factors involves Ras/Raf/mitogen-activated protein kinase (MAPK) kinase (MEK)/extracellular signal-regulated kinase (ERK) signaling. MEK1/2 activate ERK1/2 by phosphorylating T202 and Y204, which is required for ERK1/2 translocation to the nucleus. Sustained ERK1/2 phosphorylation in the nucleus activates multiple transcription factors ultimately resulting in effector protein synthesis and cell proliferation. A single dose of T3 was administered to P8 mice, and cardiomyocytes were isolated from the LV apex or base either immediately after T3 administration (0 h) or after 24 h. […] However, the fraction of nuclear ERK1/2 that remained phosphorylated at 24 h post-T3 treatment was ˜70% lower in LV basal cardiomyocytes (FIG. 4A).

cyclins D1, A2 and B1 = test: Acute in vivo T3 challenge: cyclin expression by immunoblotting; design: species or system mouse
Protocol: as §1, with “4-hydroxytamoxifen.” for “4-hydroxytamoxifen. DUSP5 or β1-adrenergic receptor-specific siRNA or scrambled siRNA (control) was administered using in vivo-jetPEI®, (VWR, 89129-960).”
An acute in vivo T3 challenge was used to identify post-neonatal LV cardiomyocytes that retain proliferative capacity. Increases in myocardial cell cycle-promoting cyclins was explored as a surrogate for identifying cardiomyocytes that are able to enter the cell cycle.

[5] = test system: ventricular cardiomyocytes; test: Ventricular cardiomyocyte count in early post-neonatal mice after T3; assay type: in vivo, mouse
Protocol: To determine the effect of T3 on the ventricular cardiomyocyte population in early post-neonatal mice, T3 daily (i. p.), was administered from P7 to P9. At P12, hearts were enzymatically disaggregated and cell suspensions created from the cardiac ventricles. Digestion efficiencies were ˜98%. Cardiomyocytes in these cell suspensions, identified by their size and by rod shape, were counted using a hemocytometer. T3 increased ventricular cardiomyocyte numbers by ˜18% (FIG. 2D), which indicates an average replication rate of 3.6%/day between P7 and P12.

[6] = LV apex cardiomyocytes, post-P8, in vivo T3
[7] = LV basal cardiomyocytes, in vivo T3

| Structure (SMILES) | Cardiomyocyte numbers, (millions) [n] [1] | Ejection fraction (adult murine heart) | FW diastole (adult murine heart) | FW systole (adult murine heart) | Fractional shortening (adult murine heart) | IVS diastole (adult murine heart) | IVS systole (adult murine heart) | LV end-diastolic dimension (adult murine heart) | LV end-systolic dimension (adult murine heart) | LV mass (adult murine heart) | other results |
| --- | --- | --- | --- | --- | --- | --- | --- | --- | --- | --- | --- |
| COCCc1ccc(OCC(O)CNC(C)C)cc1 (stereo not drawn) [Metoprolol, metoprolol succinate] | 2.44 ± 0.026 millions | 55.4 ± 1.8% | 0.92 ± 0.02 mm | 1.20 ± 0.03 mm | 23.4 ± 0.6% | 0.96 ± 0.02 mm | 1.29 ± 0.02 mm | 3.53 ± 0.07 mm | 2.71 ± 0.06 mm | 113 ± 2 mg | – |
| N[C@@H](Cc1cc(I)c(Oc2ccc(O)c(I)c2)c(I)c1)C(=O)O [T3, 3,3′,5-triiodo-L-thyronine] | 2.33 ± 0.039^NS millions | 55.7 ± 1.4^NS % | 0.87 ± 0.01^NS mm | 1.19 ± 0.03^NS mm | 24.8 ± 1.4^NS % | 0.94 ± 0.01^NS mm | 1.29 ± 0.02^NS mm | 3.60 ± 0.03^NS mm | 2.70 ± 0.05^NS mm | 110 ± 2^NS mg | increase in frequency of monochromatic cardiomyocyte clusters in the LV apex relative to the base (LV cardiomyocytes [2]): ~6.5 fold; number of cardiomyocytes in S phase (EdU+) (LV cardiomyocytes [3]; [6]): increased the number of cardiomyocytes in S phase; number of cardiomyocytes in mitosis (pH3+) (LV cardiomyocytes [3]; [6]): increased; S phase in LV basal cardiomyocytes (LV cardiomyocytes [3]; [7]): an increase in S phase was observed; mitosis in LV basal cardiomyocytes (LV cardiomyocytes [3]; [7]): did not enter mitosis; fraction of nuclear ERK1/2 that remained phosphorylated, lower in LV basal cardiomyocytes ([4]; 24 h post-T3 treatment, P8 mice, basal vs apical): ~70%; MEK1/2 phosphorylation and nuclear translocation of ERK1/2 ([4]; P8 mice, single dose T3, 24 h, similarly in apical and basal cardiomyocytes): increased MEK1/2 phosphorylation; T3-stimulated expression of IGF-1/IGF-1R ([4]; post-neonatal basal vs apical cardiomyocytes): comparable in basal and apical cardiomyocytes; T3 increase of cyclins D1/A2/B1, more in apical than in basal cardiomyocytes (cyclins D1, A2 and B1; P8 hearts, LV apical vs basal cardiomyocytes): 2-5 fold; expression of cyclins D1, A2 and B1, higher in the LV apex than in the base (cyclins D1, A2 and B1; P8 mice, 40 h after in vivo T3 challenge, LV myocardium): 2.5-100 fold; T3 effect on cyclins in apical or basal cardiomyocytes (cyclins D1, A2 and B1; P16 cardiomyocytes): did not increase cyclins; T3 effect on cyclins D1/A2/B1 in LV apical and basal cardiomyocytes (cyclins D1, A2 and B1; neonatal hearts): increased cyclins D1/A2/B1 similarly in LV apical and basal cardiomyocytes; T3-stimulated expression of cyclins D1, A2 and B1, lower in basal cardiomyocytes (cyclins D1, A2 and B1; post-neonatal basal vs apical cardiomyocytes, 40 h after T3): 2-3 fold; increase in ventricular cardiomyocyte numbers ([5]; T3 daily i.p. P7 to P9, counted at P12): ~18%; average replication rate ([5]; between P7 and P12): 3.6 %/day; effect on body weight, ventricular cardiomyocyte numbers, LV mass or any measured LV dimension (adult murine heart; vehicle pretreated adult mice): did not significantly affect |
